Columns and labels:
[1] = tested on: iPSC-derived lymphoid progenitor and precursor cells; assay: RACR-driven differentiation and expansion of iCIL cells from Day 26 lymphoid progenitors; type: cell-based, human; conditions: AP21967 100 nM, no other cytokine
Description: The RACR-system was utilized for differentiation to iPSC-derived CIL cells (iCIL cells). The iPSC cell line ATCC-BXS0117 (ATCC #ACS-1031) was differentiated into lymphoid progenitors through the STEMdiff NK cell kit ([…]® Technologies, #100-0170) as described in Example 2 above, up until the Day 26 timepoint. The percentage of cells containing common lymphoid progenitors (CD45+/CD5+/CD7+), CIL precursors (CD45+/CD5−/CD7+), and early CIL cells (CD45+/CD5−/CD7+/CD56+) is seen in FIG. 3D with ˜50% of the cells presenting as CIL precursors and ˜25% of total cells presenting as early CIL cells. […] Activation beads (#130-094-483) were added to cells at a 2:1 ratio and cells were placed in 37° C. incubator overnight to increase transduction of cells.
The cells were engineered with a polynucleotide encoding the RACR synthetic cytokine as described in Example 1, a Tag (anti-FITC) CAR (SEQ ID NO: 13), and an FRB domain for expression of FRB as a diffusible soluble protein in the engineered cell, in which the components were separated by a cleavable linker. The polynucleotide construct payload is designated Tag (anti-FITC) CAR-P2A-FRB-P2A-RACR. […] An aliquot of cells was collected weekly, counted on the Vicell Blu automated cell counter, and stained for CD16 clone 3G8, CD56 clone HCD56, CD45 clone 2D1. […]

[2] = tested on: Vδ2+ T cells transduced with RACR-FRB-mCherry; assay: RACR-expansion of blood-derived Vδ2+ T cells; type: cell-based, human; conditions: 10 nM, days 14 and 21
Description: On day 14, an aliquot of the cells was collected and washed, stained for V32, and RACR transduction was measured by mCherry. Percent Vδ2+ RACR+ cells, as well as number of transduced V32+ cells measured by counting beads was assessed by detection of V82 stain and mCherry via flow cytometry. Similarly, on day 21, an aliquot of cells was again measured for percent and number of Vδ2+ RACR+ cells via flow cytometry.

[3] = tested on: common lymphoid progenitors (iPSC line WTC11); assay: RACR-signaling replacing common gamma chain cytokines in CLP to CIL differentiation; type: cell-based, human; conditions: 4 nM
[4] = tested on: PSMA-positive human prostate cancer cells; conditions: DUPA-(99m)Tc; cited from earlier work

CO[C@@H]1C[C@H](C[C@@H](C)C2CC(=O)[C@H](C)/C=C(\C)[C@@H](O)[C@@H](OC)C(=O)[C@H](C)C[C@@H](C)/C=C/C=C/C=C(\C)[C@H](c3c[nH]c4c(C)cccc34)C[C@H]3CC[C@@H](C)[C@@](O)(O3)C(=O)C(=O)N3CCCC[C@H]3C(=O)O2)CC[C@@H]1O (some centres unmarked) [AP21967]
expansion (total number of TagCAR positive cells) [1]: sufficient to drive iCIL expansion | percentage and total number of Vδ2+ RACR+ cells [2]: increased in both percentage and total number of cells | percent of RACR-CAR+ CD56+ cells ([3]; Day 40, all four media conditions): increase in the percent of RACR-CAR+ CD56+ cells | fold change in RACR-CAR+ cells ([3]; media with UM729 alone (None)): largest fold change

O=C(O)CC[C@H](NC(=O)N[C@@H](CCC(=O)O)C(=O)O)C(=O)O [DUPA]
Kd [4]: 14 nM
